Assay results from ChEMBL document CHEMBL1133829, “Design and synthesis of a novel class of histone deacetylase inhibitors” (Bioorg Med Chem Lett, 2001).

Tests used:
[1] = biological target: T1, Histone deacetylase 1 (Homo sapiens, UniProt Q13547); experiment: Concentration of compound required for acetylation of histone-4 in human T24 cancer cells; assay type: functional, cell-based, Cancer cell lines
[2] = tested on: Mus musculus; experiment: In vivo inhibition of non small cell lung carcinoma A549 tumor in nude mice administered with a daily dose of 50 mg/kg for 21 days; assay type: functional; settings: A549, 504 h
[3] = tested on: HCT-116; experiment: In vitro antiproliferative activity against human colon cancer HCT 116 cells determined by […] assay; assay type: functional, cell-based
[4] = tested on: Mus musculus; experiment: In vivo inhibition of non small cell lung carcinoma A549 tumor in nude mice administered with a daily dose of 20 mg/kg for 21 days; assay type: functional; settings: A549, 504 h
[5] = tested on: Mus musculus; experiment: In vivo inhibition of non small cell lung carcinoma A549 tumor in nude mice administered with a daily dose of 40 mg/kg for 21 days; assay type: functional; settings: A549, 504 h
[6] = biological target: T1, Histone deacetylase 1; experiment: In vitro inhibition of partially purified recombinant human Histone deacetylase 1

T1 sequence (Q13547 whole entry): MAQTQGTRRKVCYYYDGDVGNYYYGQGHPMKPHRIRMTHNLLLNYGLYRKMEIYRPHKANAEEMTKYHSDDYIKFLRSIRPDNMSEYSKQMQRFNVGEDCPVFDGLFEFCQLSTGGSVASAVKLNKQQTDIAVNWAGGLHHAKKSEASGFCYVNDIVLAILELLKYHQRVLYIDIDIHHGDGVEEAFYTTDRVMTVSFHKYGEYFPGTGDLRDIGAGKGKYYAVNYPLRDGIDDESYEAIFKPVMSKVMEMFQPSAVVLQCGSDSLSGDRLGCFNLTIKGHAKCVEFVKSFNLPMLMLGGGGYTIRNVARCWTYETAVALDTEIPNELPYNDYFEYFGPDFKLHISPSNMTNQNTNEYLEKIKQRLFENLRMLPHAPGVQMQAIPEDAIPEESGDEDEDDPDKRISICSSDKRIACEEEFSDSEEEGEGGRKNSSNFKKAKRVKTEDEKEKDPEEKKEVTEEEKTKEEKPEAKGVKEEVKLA

Row | SMILES | EC50 [1] | inhibition in vivo at 50 mg/kg [2] | EC50 [3] | inhibition in vivo at 20 mg/kg [4] | inhibition in vivo at 40 mg/kg [5] | IC50 [6]
1 | COc1ccc(S(=O)(=O)Nc2ccc(/C=C/C(=O)NO)cc2)cc1OC | 1000 nM | 57% | 200 nM | 41% | 50% | 
2 | CC(C)C(Cc1ccc(NS(=O)(=O)c2ccccc2)cc1)C(=O)NO (stereo unspecified) | > 25000 nM |  | 30000 nM |  |  | > 25000 nM
3 | O=C(CCc1ccc(NS(=O)(=O)c2ccccc2)cc1)NO | 5000 nM |  | 2000 nM |  |  | 
4 | CC(/C=C/C(=O)NO)=C\[C@@H](C)C(=O)c1ccc(N(C)C)cc1 [TRICHOSTATIN] |  |  | 1000 nM |  |  | 
5 | O=C(/C=C/c1ccc(NS(=O)(=O)c2ccccc2)cc1)NO |  |  | 3000 nM |  |  | 
6 | O=C(Cc1ccc(NS(=O)(=O)c2ccccc2)cc1)NO | > 25000 nM |  | 22000 nM |  |  | 1000 nM
7 | O=C(/C=C/c1ccc(NS(=O)(=O)c2ccc(Cl)c(Cl)c2)cc1)NO | 5000 nM |  | 2000 nM |  |  | 100 nM
8 | COc1ccc(S(=O)(=O)Nc2ccc(/C=C/C(=O)NO)cc2)cc1 | 5000 nM |  | 400 nM |  |  | 60 nM
9 | O=C(/C=C/c1ccc(NS(=O)(=O)c2ccc(Cl)cc2)cc1)NO |  |  | 1000 nM |  |  | 
10 | O=C(/C=C/c1ccc(NS(=O)(=O)c2ccc(Cl)cc2Cl)cc1)NO | > 25000 nM |  | 4000 nM |  |  | 
11 | Cc1ccc(S(=O)(=O)Nc2ccc(/C=C/C(=O)NO)cc2)cc1 | 10000 nM |  | 700 nM |  |  | 
